Here are results for 1 molecule from patent US20240181049A1, “HARNESSING THE POWER OF MICROBIOTA AND METABOLITES FOR THE TREATMENT OF CANCER” (UTI LIMITED PARTNERSHIP, priority 2019, published 2024).

Test [1] relates to MC38 tumor cells. Kind of test: MC38 tumors in GF Rag1-deficient mice receiving WT or A2AR-deficient T cells, inosine + anti-CTLA-4 + CpG. The test is classed as in vivo. The following applies: WT vs A2AR-deficient T cells. On the procedure: FIG. 5A-5L: Inosine promotes Th1 activation and anti-tumor immunity. (a) Schematic overview of experimental setup to assess the effect of inosine on Th1 activation in vivo. (b, c) Representative dot plots and quantification (left and right panel respectively) of T-bet^+IFN-γ^+CD3ε^+ (b) CD8^+ or (c) CD4^+ T cells in the MLN. (d) Schematic overview of experimental setup to assess the effect of inosine on anti-tumor immunity. Upon palpable tumors, mice were treated with 100 μg anti-CTLA-4 i.p. (5 times every 72 hours) and in some groups 20 μg CpG i.p. (5 times every 72 hours). In addition, inosine (300 mg/KG/BW) or PBS was given daily orally (O), through gavage or systemically (S) through i.p. injection. (e) Tumor weight and quantification of IFN-γ^+ cells amongst (f) CD4^+ or (g) CD8^+ cells are shown. (h). Schematic overview to assess the requirement of A2AR signaling for inosine-induced anti-tumor immunity. 1×10^6 MC38 cells (s.c.) and WT or A2AR-deficient 1×10^7 T cells (i.v. 6×10^6 CD4^+ and 4×10^6 CD8^+ cells) were injected. Upon palpable tumors, mice were treated with 100 μg anti-CTLA-4, 20 μg CpG (4 times every 72 hours, both i.p.) and inosine (daily, 300 mg/KG/BW, through gavage). (i) Pictures of tumors are shown at day 20. scale bars: 1 cm. (j) Tumor weight and quantification of IFN-γ^+ in (k) CD8^+ or (l) CD4^+ cells in the tumor are shown. Data are mean±SEM and pooled from two individual experiments (a-l) 10-11 mice/group. *, P<0.05; **, P<0.01; ***, P<0.001.
To evaluate the effect of inosine on Th1 activation, mice received 30 μg CpG, […] EndoFit Ovalbumin (both Invivogen) and 2 μg OVA323-339 (Sigma) i.p. and 24 hours later mice received 300 mg/kg/BW inosine or PBS as a control through i.p. injection. T cell differentiation was assessed 48 hours later. To assess the impact of inosine on tumor development during ICB therapy 1×10^6 cancer cells were injected subcutaneously (s.c.) in the flank of germ-free mice. […]

Test [2] concerns naïve CD4^+ T cells. Put plainly: Naive CD4+ T cells with anti-CD3/anti-CD28 coated beads. The test is classed as cell-based, mice. The text has this:
FIG. 4A-4K: Effect of inosine on T cell differentiation and dependency on classical dendritic cells of ICB therapy efficacy. (a) Scatter plot of untargeted metabolomics data in the serum of anti-CTLA-4 treated, tumor-bearing B.p. monocolonized compared to C.sp. monocolonized and germ-free (GF) mice. Grey circles or dotted grey circles depict inosine or inosine fragments/adducts, respectively. […] (c) Naïve CD4^+ T cells were co-cultured with bone marrow derived dendritic cells and IFN-γ. Quantification of T-bet^+CD3ε^+CD4^+ T cells 48 hours after co-culture in the presence or absence of inosine, A2A receptor inhibitor (ZM241385), cell permeable cAMP (db-cAMP) and protein kinase A inhibitor (RP-8-CPT-CAMPS). (d) Same as (c) without IFN-γ. (e) Representative plot and quantification (left and right panel) of phospho-CREB (Ser133) levels in naïve CD4^+ T cells cultured with anti-CD3/anti-CD28 coated beads for 1 hour in the presence or absence of inosine. (f) Schematic overview of experimental setup to deplete classical dendritic cells during MC38 tumor challenge and anti-CTLA-4 treatment. Intratumoral (g) frequency of CD8^+ T cells (h) IFN-γ^+CD8^+ T cells. (i and j) same as (g and h), but CD4^+ T cells and (k) tumor weight at […]. Data are mean±SEM and pooled from two individual experiments (a-b) n=5-8 samples/group (c-e) 10-15 biological replicates/group (f-k) 10 mice/group. *, P<0.05; **, P<0.01; ***, P<0.001; ****, P<0.0001
FIG. 16A-16J: Context dependent effect of inosine on Th1 T cell differentiation. (a) Naïve CD4^+ T cells were co-cultured with bone marrow derived dendritic cells without IFN-γ. Quantification of T-bet^+CD3e^+CD4^+ T cells 48 hours after co-culture in the presence or absence of inosine and anti-CTLA-4, as indicated. (b) Naïve CD4^+ T cells were cultured anti-CD3/anti-CD28 coated beads at a ratio of 1:1 without IFN-γ for 48 hours. Representative plot and quantification of IL12Rβ2 surface expression on CD4^+ T cells in the presence or absence of inosine (left and right panel). (c) Quantification of T-bet^+CD3e^+CD4^+ T cells 48 hours after co-culture in the presence or absence of inosine, db-cAMP and anti-CTLA-4 as indicated. (d) Naïve, A2AR-deficient CD4^+ T cells were cultured with anti-CD3/anti-CD28 coated beads at a ratio of 1:1 without IFN-γ. Quantification of T-bet^+CD3e^+CD4^+ T cells 48 hours after co-culture in the presence or absence of inosine or db-cAMP (e) Representative plot and quantification (left and right panel) of pCREB expression of anti-CD3/anti-CD28 bead co-cultured CD4^+ T cells in the presence or absence of inosine or db-cAMP 1 hour after stimulation. Analysis through flow cytometry. (f and g) Naïve, wild type CD4^+ T cells were cultured with anti-CD3/anti-CD28 coated beads at a ratio of 1:1. Il12rb2 and Ifng gene transcripts (normalized to Gapdh) were evaluated 24 and 48 hours following inosine (1 mM) stimulation. Expression was normalized to cells treated with medium. Analysis through quantitative PCR assay (h) Naïve CD4^+ T cells were cultured with anti-CD3/anti-CD28 coated beads at a ratio of 1:1 without IFN-γ for 24 hours. Then inosine or vehicle was added at the indicated concentrations for another 48 hours before T cell differentiation and activation was assessed. (i) Adenosine concentrations in the duodenal-, jejunal- or cecal content of B.p. monocolonized mice and in the serum of B.p. or C.sp. monocolonized anti-CTLA-4 treated mice. (j) Naïve CD4^+ T cells were cultured with anti-CD3/anti-CD28 coated beads at a ratio of 1:1 without IFN-γ for 24 hours. Adenosine or was added then in the indicated concentrations for another 48 hours followed by T cell differentiation and activation was assessed through flow cytometry. […]

For `OC[C@H]1O[C@@H](n2cnc3c(O)ncnc32)[C@H](O)[C@@H]1O` [inosine], in test [1], the “IFN-γ production within tumors” value is given as “WT but not A2AR-deficient T cells displayed increased IFN-γ production within tumors” and the tumor weights entry is reported as “only GF mice receiving WT T cells showed reduced tumor weights”. In addition, in test [1] (inosine oral), the anti-CTLA-4/CpG-mediated anti-tumor immunity result is listed as “enhanced anti-CTLA-4/CpG-mediated anti-tumor immunity in animals that received WT but not A2AR-deficient T cells”. Besides, the “phosphorylation of CREB (Ser133)” value in test [2] (1 hour) is on record as “led to phosphorylation”. The Th1 differentiation result in test [2] (bead-activated naïve T cells, no DCs) is on record as “enhanced Th1 differentiation, even in the absence of IFN-γ”. Moreover, the “Il12rb2 and Ifng gene transcription” value in test [2] (inosine 1 mM, 24 and 48 hours, quantitative PCR) is given as “sustained upregulation”. The “Th1 activation, inosine dose response” value in test [2] (physiological concentrations observed in sera of B.p. but not C.sp. monocolonized mice) is given as “sufficient to induce Th1 activation”. Also, the IL12Rβ2 surface expression result in test [2] (without IFN-γ, 48 hours) is recorded as “upregulation of IL12Rβ2”.
